Measurements reported in patent US11124506B2, “Salts and crystal forms of diaza-benzofluoranthrene compounds” (HARBIN PHARMACEUTICAL GROUP CO., LTD. GENERAL …, priority 2016, dated 2021).
pIC50: −log10 of the molar value.

Target: T1, PDE1A (Homo sapiens, UniProt P54750)
T1 construct: purchased SignalChem
Assay: In vitro detection of phosphodiesterase (PDE), fluorescence polarization detection of AMP/GMP production
Assay type: biochemical
Conditions: human enzyme (SignalChem), cAMP or cGMP substrate, Ca2+-calmodulin cofactor; read-out: IC50 values measured by PDE1 detection: PDE1
Experimental: Experimental Example 1: The In Vitro Detection of Phosphodiesterase (PDE)
Principle of the Experiment:
The assay measures PDE1A enzyme activity based on fluorescence polarization detection of AMP/GMP production. The principle of the reaction is to replace the binding of AMP/GMP to its antibody by AlexaFluor 633 labeled AMP/GMP.
Reaction buffer: 10 mM Tris-HCl, pH=7.5, 5 mM magnesium chloride, 0.01% Brij 35, 1 mM DTT, and 1% DMSO;
Enzyme substrate: […] cAMP or cGMP (Ca^2+-calmodulin as a cofactor of PDE1A);
Transcreener® AMP2/GMP2 antibody;
AMP2/GMP2 AlexaFluor 633 marker.
Experimental Procedures and Methods:
1. Human enzyme to be tested (purchased from SignalChem) and the substrate were diluted with a freshly prepared reaction buffer.
2. An enzyme solution (concentration: 3 pM) was added to the wells of a reaction plate.
3. […]
7. The following devices were used for detection: EnVision (PerkinElmer), Cy5FP Ex FP 620, Em S-pol 688/P-pol 688, FP mirror D658fp/D688; fluorescence polarization was detected using Ex/Em 620/688.
Enzymatic activity corresponding to the FP signal was retrieved in an AMP/GMP standard curve using DMSO as a control in an Excel table. […] An analysis was performed using GraphPad Prism and IC50 values were calculated.

For `CC[C@@]12C=C(c3nc(C)no3)n3c4c(c5ccccc53)CCN(CCC1)[C@H]42` [Compound 1], the pIC50 was 4.70 to 6.00.
